{"source": "the OligoGym collection", "target": "HSD17B13", "details": "ASO, HepaRG", "note": "After the bases stand the sugars from the 5' end (letter, count) and the backbone: PS all phosphorothioate, else s phosphorothioate and o phosphodiester by linkage. Methylation of C is not given here. e = 2'-O-(2-methoxyethyl) (MOE); k = constrained ethyl (cEt); d = 2'-deoxy (DNA); m = 2'-O-methyl", "data": [{"sequence": "ATAAGGCCGATTCATG (sugars k3 d10 k3, PS)", "values": [{"measurement": "target mRNA inhibition", "setting": "1 µM", "value": 38, "unit": "%"}]}, {"sequence": "ATAAGTAGTCTGCCTG (sugars k3 d10 k3, PS)", "values": [{"measurement": "target mRNA inhibition", "setting": "1 µM", "value": 43, "unit": "%"}]}, {"sequence": "ATACGATGGAACAAAA (sugars k3 d10 k3, PS)", "values": [{"measurement": "target mRNA inhibition", "setting": "1 µM", "value": 27, "unit": "%"}]}, {"sequence": "ATACTGTCCCAGCATT (sugars k3 d10 k3, PS)", "values": [{"measurement": "target mRNA inhibition", "setting": "1 µM", "value": 32, "unit": "%"}]}, {"sequence": "ATACTTACCAATATGG (sugars k3 d10 k3, PS)", "values": [{"measurement": "target mRNA inhibition", "setting": "1 µM", "value": 0, "unit": "%"}]}, {"sequence": "ATAGAGTTGCACCGTT (sugars k3 d1 m1 d8 k3, PS)", "values": [{"measurement": "target mRNA inhibition", "setting": "1 µM", "value": 59, "unit": "%"}]}, {"sequence": "ATAGAGTTGCACCGTT (sugars k3 d9 k3 e1, PS)", "values": [{"measurement": "target mRNA inhibition", "setting": "1 µM", "value": 71, "unit": "%"}]}, {"sequence": "ATAGAGTTGCACCGTT (sugars k3 d10 k3, PS)", "values": [{"measurement": "target mRNA inhibition", "setting": "1 µM", "value": 57, "unit": "%"}]}, {"sequence": "ATAGCAAGCCAACAGA (sugars k3 d10 k3, PS)", "values": [{"measurement": "target mRNA inhibition", "setting": "1 µM", "value": 37, "unit": "%"}]}, {"sequence": "ATAGCCAGTACAGTTC (sugars k3 d10 k3, PS)", "values": [{"measurement": "target mRNA inhibition", "setting": "1 µM", "value": 65, "unit": "%"}]}, {"sequence": "ATATACATCCAAGTAA (sugars k3 d10 k3, PS)", "values": [{"measurement": "target mRNA inhibition", "setting": "1 µM", "value": 18, "unit": "%"}]}, {"sequence": "ATCAAATGTATGTGCT (sugars k3 d10 k3, PS)", "values": [{"measurement": "target mRNA inhibition", "setting": "1 µM", "value": 73, "unit": "%"}]}, {"sequence": "ATCAAGACATTCTAGC (sugars k3 d9 k3 e1, PS)", "values": [{"measurement": "target mRNA inhibition", "setting": "1 µM", "value": 52, "unit": "%"}]}, {"sequence": "ATCAAGACATTCTAGC (sugars k4 m1 d8 k3, PS)", "values": [{"measurement": "target mRNA inhibition", "setting": "1 µM", "value": 37, "unit": "%"}]}, {"sequence": "ATCCAGATCTGCCCTA (sugars k3 d10 k3, PS)", "values": [{"measurement": "target mRNA inhibition", "setting": "1 µM", "value": 39, "unit": "%"}]}, {"sequence": "ATCCATTCTATGCAAG (sugars k3 d10 k3, PS)", "values": [{"measurement": "target mRNA inhibition", "setting": "1 µM", "value": 46, "unit": "%"}]}, {"sequence": "ATCCCGTTCTTGCCCA (sugars k3 d10 k3, PS)", "values": [{"measurement": "target mRNA inhibition", "setting": "1 µM", "value": 30, "unit": "%"}]}, {"sequence": "ATCCTATATACATCCA (sugars k3 d10 k3, PS)", "values": [{"measurement": "target mRNA inhibition", "setting": "0.02 µM", "value": 3, "unit": "%"}, {"measurement": "target mRNA inhibition", "setting": "0.078 µM", "value": 8, "unit": "%"}, {"measurement": "target mRNA inhibition", "setting": "0.313 µM", "value": 36, "unit": "%"}, {"measurement": "target mRNA inhibition", "setting": "1 µM", "value": 76, "unit": "%"}, {"measurement": "target mRNA inhibition", "setting": "1.25 µM", "value": 72, "unit": "%"}, {"measurement": "target mRNA inhibition", "setting": "5 µM", "value": 92, "unit": "%"}]}, {"sequence": "ATCCTGTAAACACTTC (sugars k3 d10 k3, PS)", "values": [{"measurement": "target mRNA inhibition", "setting": "0.02 µM", "value": 11, "unit": "%"}, {"measurement": "target mRNA inhibition", "setting": "0.078 µM", "value": 13, "unit": "%"}, {"measurement": "target mRNA inhibition", "setting": "0.313 µM", "value": 27, "unit": "%"}, {"measurement": "target mRNA inhibition", "setting": "1 µM", "value": 79, "unit": "%"}, {"measurement": "target mRNA inhibition", "setting": "1.25 µM", "value": 66, "unit": "%"}, {"measurement": "target mRNA inhibition", "setting": "5 µM", "value": 87, "unit": "%"}]}, {"sequence": "ATCCUATATACATCCA (sugars k3 d1 m1 d8 k3, PS)", "values": [{"measurement": "target mRNA inhibition", "setting": "1 µM", "value": 64, "unit": "%"}]}, {"sequence": "ATCTACATGGATCCAA (sugars k3 d10 k3, PS)", "values": [{"measurement": "target mRNA inhibition", "setting": "1 µM", "value": 12, "unit": "%"}]}, {"sequence": "ATCTAGAACACTTGCC (sugars k3 d10 k3, PS)", "values": [{"measurement": "target mRNA inhibition", "setting": "1 µM", "value": 27, "unit": "%"}]}, {"sequence": "ATCTATCAGACTTCTT (sugars k3 d9 k3 e1, PS)", "values": [{"measurement": "target mRNA inhibition", "setting": "1 µM", "value": 51, "unit": "%"}]}, {"sequence": "ATCTCTGGGACCAAGG (sugars k3 d1 m1 d8 k3, PS)", "values": [{"measurement": "target mRNA inhibition", "setting": "1 µM", "value": 52, "unit": "%"}]}, {"sequence": "ATCTTAAGAGAAGGTG (sugars k3 d10 k3, PS)", "values": [{"measurement": "target mRNA inhibition", "setting": "1 µM", "value": 43, "unit": "%"}]}, {"sequence": "ATCTTAAGATACCCAG (sugars k3 d9 k3 e1, PS)", "values": [{"measurement": "target mRNA inhibition", "setting": "1 µM", "value": 71, "unit": "%"}]}, {"sequence": "ATCTTATAAGACTATA (sugars k3 d9 k3 e1, PS)", "values": [{"measurement": "target mRNA inhibition", "setting": "1 µM", "value": 53, "unit": "%"}]}, {"sequence": "ATCTTATAAGACTATA (sugars k3 d10 k3, PS)", "values": [{"measurement": "target mRNA inhibition", "setting": "1 µM", "value": 32, "unit": "%"}]}, {"sequence": "ATCTTATAAGACTATA (sugars kkdddddddddkekek, PS)", "values": [{"measurement": "target mRNA inhibition", "setting": "1 µM", "value": 30, "unit": "%"}]}, {"sequence": "ATGAAGTTAGTATAGT (sugars k3 d1 m1 d8 k3, PS)", "values": [{"measurement": "target mRNA inhibition", "setting": "1 µM", "value": 38, "unit": "%"}]}, {"sequence": "ATGAAGTTAGTATAGT (sugars k3 d9 k3 e1, PS)", "values": [{"measurement": "target mRNA inhibition", "setting": "1 µM", "value": 61, "unit": "%"}]}, {"sequence": "ATGAGAACAATCTCCC (sugars k3 d10 k3, PS)", "values": [{"measurement": "target mRNA inhibition", "setting": "0.02 µM", "value": 0, "unit": "%"}, {"measurement": "target mRNA inhibition", "setting": "0.078 µM", "value": 9, "unit": "%"}, {"measurement": "target mRNA inhibition", "setting": "0.313 µM", "value": 40, "unit": "%"}, {"measurement": "target mRNA inhibition", "setting": "1 µM", "value": 65, "unit": "%"}, {"measurement": "target mRNA inhibition", "setting": "1.25 µM", "value": 64, "unit": "%"}, {"measurement": "target mRNA inhibition", "setting": "5 µM", "value": 78, "unit": "%"}]}, {"sequence": "ATGAGATTACCCCTGG (sugars k3 d10 k3, PS)", "values": [{"measurement": "target mRNA inhibition", "setting": "1 µM", "value": 62, "unit": "%"}]}, {"sequence": "ATGAGGTTTTGATACC (sugars k3 d9 k3 e1, PS)", "values": [{"measurement": "target mRNA inhibition", "setting": "1 µM", "value": 20, "unit": "%"}]}, {"sequence": "ATGCAAGATTTACTTC (sugars k3 d10 k3, PS)", "values": [{"measurement": "target mRNA inhibition", "setting": "1 µM", "value": 38, "unit": "%"}]}, {"sequence": "ATGGCTACAGATTGGA (sugars k3 d10 k3, PS)", "values": [{"measurement": "target mRNA inhibition", "setting": "1 µM", "value": 72, "unit": "%"}]}, {"sequence": "ATGGGATGAGGTAAGG (sugars k3 d10 k3, PS)", "values": [{"measurement": "target mRNA inhibition", "setting": "1 µM", "value": 46, "unit": "%"}]}, {"sequence": "ATGGTGATCAGAAGCA (sugars k3 d10 k3, PS)", "values": [{"measurement": "target mRNA inhibition", "setting": "0.02 µM", "value": 0, "unit": "%"}, {"measurement": "target mRNA inhibition", "setting": "0.078 µM", "value": 28, "unit": "%"}, {"measurement": "target mRNA inhibition", "setting": "0.313 µM", "value": 46, "unit": "%"}, {"measurement": "target mRNA inhibition", "setting": "1 µM", "value": 85, "unit": "%"}, {"measurement": "target mRNA inhibition", "setting": "1.25 µM", "value": 80, "unit": "%"}, {"measurement": "target mRNA inhibition", "setting": "5 µM", "value": 81, "unit": "%"}]}, {"sequence": "ATGTAAAGTTTGTTAG (sugars k3 d10 k3, PS)", "values": [{"measurement": "target mRNA inhibition", "setting": "1 µM", "value": 12, "unit": "%"}]}, {"sequence": "ATGTAGTGGGAGTCGG (sugars k3 d10 k3, PS)", "values": [{"measurement": "target mRNA inhibition", "setting": "1 µM", "value": 72, "unit": "%"}]}, {"sequence": "ATGTATCTTATAAGAC (sugars k3 d9 k3 e1, PS)", "values": [{"measurement": "target mRNA inhibition", "setting": "1 µM", "value": 24, "unit": "%"}]}, {"sequence": "ATGTCATAAAAATCGC (sugars k3 d10 k3, PS)", "values": [{"measurement": "target mRNA inhibition", "setting": "1 µM", "value": 53, "unit": "%"}]}, {"sequence": "ATGTTAGGACCCAGTC (sugars k3 d10 k3, PS)", "values": [{"measurement": "target mRNA inhibition", "setting": "1 µM", "value": 60, "unit": "%"}]}, {"sequence": "ATGTTGACCTCAAATG (sugars k3 d10 k3, PS)", "values": [{"measurement": "target mRNA inhibition", "setting": "1 µM", "value": 0, "unit": "%"}]}]}
